According to ChEMBL document CHEMBL3988442, “University of Dundee, Small-Polar-MMV Screening Library” (2021):

What was measured:
[1] = microbe, parasite or virus in culture; details: Mycobacterium tuberculosis, 96 h, read-out: pIC50 (converted)
[2] = microbe, parasite or virus in culture; details: Mycobacterium tuberculosis, 72 h, read-out: pIC50 (converted)

SMILES | IC50 [1] [µM] | IC50 [2] [µM]
CC1(C)Oc2ccc(NC(=O)C3CCOC3)cc2O1 (stereo not given) | 261 | 289
COC(=O)COc1ccc2c(c1)OCO2 | > 501 | 140
NCc1ccc(OC2CCCCC2)nc1 | > 501 | > 501
CN(CCc1ccccc1)Cc1nc(Cc2cccc(F)c2)no1 | 33.8 | 2.69
C=Cc1ccc(C(=O)N2CCCC(Nc3ccc(F)c(F)c3)C2)cc1 (stereo not given) | 40.8 | > 50.1
NC[C@]12C[C@H]1CCN2Cc1ccccc1 | 184 | > 501
CC(C)c1cc(C(=O)N2CCN(Cc3ccsc3)CC2)n[nH]1 | 39.7 | 28.4
Cc1ccc(NC(C)C(=O)NCc2cccs2)cc1Cl (stereo not given) | 5.63 | 5.25
CN1CC(=O)Nc2cccnc21 | 314 | 157
CC1(c2ncc(CN3CCN(c4ncccn4)CC3)cn2)CCCCO1 (stereo not given) | > 50.1 | > 50.1
CC(N)CCc1ccc2c(c1)OCO2 (stereo not given) | 274 | 185
COCCOCCn1nc(C)c(C#N)c1N | > 501 | > 501
CN(C)S(=O)(=O)N1CCCC1c1ccsc1 (stereo not given) | > 501 | 277
COCCn1nnc(-c2cccc(OC)c2)n1 | 42.2 | 43.7
C=C(Br)CN1CCN(CCNC(=O)C2CCC2)CC1 | > 501 | 278
CCOc1ccc2cc(S(=O)(=O)NCCO)ccc2c1 | 9.01 | 5.84
CCC(c1nnc(SCC(=O)NCC(C)C)o1)N(C)C (stereo not given) | 192 | 217
NCC(O)c1ccc(Cl)cc1Cl (stereo not given) | > 501 | 304
OCC1CN(c2ncc(Cl)cc2F)CCO1 (stereo not given) | 180 | 115
CCc1cc(N(C)Cc2ccncn2)n2nc(C)c(C)c2n1 | 14.2 | 33.8
CCCN(CCO)CC(=O)N1CCCC(C)C1 (stereo not given) | > 501 | > 501
Cc1nnc(SCc2ccc(Cl)s2)n1CC(N)=O | > 501 | > 501
O=C(CNCC1CC1)Nc1ccc(F)cc1 | > 501 | 215
C=C(C)CSc1nnc(CCNC(=O)OC(C)(C)C)o1 | 5.84 | 40.4
CN(Cc1ccc(Cl)s1)C(=O)Cn1nc(-c2ccc(F)cc2)oc1=O | > 50.1 | > 50.1
CC(c1nc(-c2ccccn2)no1)N1CCSCC1 (stereo not given) | 115 | 86.8
CN(Cc1ccncc1)S(=O)(=O)c1cccs1 | > 501 | 116

SMILES | IC50 [1] [µM] | IC50 [2] [µM]
CC(=O)NCC(=O)N1C[C@@H]2CC[C@H](Oc3ccccc3Cl)[C@@H]2C1 | > 50.1 | > 50.1
COCCC1(CNC(=O)NCC2CCCS2)CCCC1 (stereo not given) | > 50.1 | > 50.1
CC(C)N(C)S(=O)(=O)NCCCN(C)c1ccccc1 | 216 | 193
COc1ccccc1CN1CCC(N)CC1 | > 501 | 130
CCS(=O)(=O)N(C)CCCNc1ccc(C)c(C#N)n1 | 84.2 | 106
CCN1CC2(CC1=O)CN(Cc1cnn(C)c1)CCN(C(=O)C(C)C)C2 (stereo not given) | > 50.1 | > 50.1
CN1CCCC(c2cccc(-c3cccc(C(F)(F)F)c3)n2)C1 (stereo not given) | 3.45 | 2.88
CCCc1cc(CN(C)C(=O)c2cccs2)n[nH]1 | 437 | 293
CCOc1ccnc(N[C@@H](Cc2ccccc2)C(N)=O)n1 | > 50.1 | > 50.1
CCOC(=O)CNc1ccc(OC)cc1 | 335 | 124
Cc1cnc(N2CCC(O)CC2)c(Br)c1 | > 501 | > 501
C=C(C)CCOC(=O)c1ccc(CS(C)(=O)=O)cc1 | 258 | 275
CCCn1cc(CNc2nc(C3CC3)no2)cn1 | 151 | 125
O=C(NCC(O)C1CCCCC1)[C@@H](O)c1ccccc1 (stereo not given in full) | 189 | 86.1
CC(C)CC(C)Oc1cc(CNS(N)(=O)=O)ccn1 (stereo not given) | 372 | 116
CC(C)Cn1ccnc1CNc1ncccc1F | 382 | 307
O=C(NCCc1c[nH]c2ccc(F)cc12)C1(n2cnnn2)CCCCC1 | 28 | 46.3
COC1CCN(C(=O)Cc2ccc(N(C)C)cc2)C1 (stereo not given) | 122 | 183
COC(=O)C(C)OC(=O)c1cccnc1SC (stereo not given) | > 501 | > 501
CCOc1ccc(CSc2nnc[nH]2)cc1 | 198 | 218
CC(C)Cc1noc(-c2ccc(N(C)CCO)nc2)n1 | 397 | 239
N#Cc1ccc(S(=O)(=O)NCCCN)cc1C(F)(F)F | > 501 | 205
CC(C)(C#N)C(=O)NCCNc1cccc(Br)c1 | 206 | 267
CC(C)c1cccc(CN[C@H](CO)C(C)C)n1 | > 501 | 303
CC(C)n1nnc(CC(=O)NCC2(c3cccc(F)c3)CCCC2)n1 | > 50.1 | > 50.1
COC(=O)c1ccc(C(=O)NCc2ccc(Br)cc2)cn1 | 25.6 | 24.8
COc1ccc(NC(=O)NC(C)(C)C(C)(C)O)cc1 | > 501 | 186

SMILES | IC50 [1] [µM] | IC50 [2] [µM]
COC(=O)c1cccc(OCC(O)C(F)(F)F)c1 (stereo not given) | > 501 | > 501
CCNC(=O)c1cc(N2CCCC(C)CC2)ccn1 (stereo not given) | 237 | 143
N#CCCCn1nnc(-c2ccccc2)n1 | 178 | 191
CCOc1ccc(CNC(=O)CCn2cccn2)cc1 | > 501 | 148
c1ccc2c(N3CCNCC3)cncc2c1 | 290 | 460
CCOC(=O)c1cccnc1NCc1cnn(C)c1C | > 501 | 180
COC(=O)CNC(=O)c1ccc(C)c(-n2cccc2)c1 | > 501 | > 501
CCCN(CCn1c(=O)oc2ccccc21)CC1CC1 | > 50.1 | > 50.1
COc1c(Br)cccc1CCNC(=O)c1csnn1 | > 50.1 | > 50.1
COCCc1noc(CNC2CCCC(C)(C)C2)n1 (stereo not given) | > 50.1 | 2.66
CCCOc1cc(CNC(=O)c2nccn2C)ccn1 | 201 | 248
N#Cc1cccnc1N1CCOC(c2nccs2)C1 (stereo not given) | > 501 | 138
Cc1csc(CCN)n1 | > 501 | > 501
CCc1noc(Cn2nc(C(F)(F)F)ccc2=O)n1 | 365 | 47.8
COc1ccc(C(=O)NC(C)Cn2cccn2)c(O)c1 (stereo not given) | 276 | 256
CC(CCc1ccco1)NC(=O)Nc1cc(C(F)(F)F)c[nH]c1=O (stereo not given) | 43.3 | 15.9
NCc1nc(-c2cccc(C(F)(F)F)c2)no1 | 130 | 262
COCCN(C)C(=O)Nc1cccc(Cl)c1 | 282 | > 501
CCN(CCS(=O)(=O)c1ccccc1)CC(=O)N(C)C | 126 | 130
CCn1c(SCC(N)=O)nnc1-c1cc(Br)cs1 | 249 | 254
CCS(=O)(=O)N(C)C(=O)CCc1c[nH]c2ccccc12 | 97.3 | 44.8
Cc1cc2nc(CN)[nH]c2cc1C | > 501 | 148
CCN(CC)C(=O)CN1CCC2(C=Cc3cc(Cl)c(C)cc3O2)CC1 | > 50.1 | 31.4
O=c1oc(-c2ccc(F)cc2)nn1CC1CCCCO1 (stereo not given) | > 50.1 | 0.609
CC(C)N(CCNC(=O)c1[nH]nc2ccc(I)cc12)C(C)C | 15.8 | 17.9
NCC(=O)N1CCCC(CCc2ccc(F)cc2)C1 (stereo not given) | 310 | 333
O=C(C1CC1)N1CCN(Cc2cccc(F)c2)CC1 | 210 | > 501

SMILES | IC50 [1] [µM] | IC50 [2] [µM]
CNC(=O)COc1cccc(OCC2CC2)c1 | 188 | > 501
CCN1CCN(c2ccccc2O)CC1 | 189 | 210
COc1ccc(C(=O)N2CCOC(Cc3cccc(C(F)(F)F)c3)C2)o1 (stereo not given) | 10.7 | 35.1
CCCc1noc(C(C)Nc2cccc(C(N)=O)c2)n1 (stereo not given) | 156 | 56.4
Cc1c(C(=O)NCC(N)=O)oc2ccc(Cl)cc12 | 218 | 102
Cc1nc(C(=O)NCc2cccs2)ccc1C#N | 64.4 | 82.4
CC(C)COCC(O)CNc1nnc(C(C)C)s1 (stereo not given) | 86.9 | 111
O=C(CNC(=O)c1cccs1)c1ccccc1 | > 501 | > 501
CC[C@H](N)C(=O)N(C)CCOc1cccc(Cl)c1 | 263 | 377
O=C1NCC2(CCCN(C(=O)c3c[nH]nc3-c3cccs3)C2)O1 (stereo not given) | > 50.1 | > 50.1
COc1ccc(CN2C[C@H]3CN(C(=O)c4ccno4)CCN3C2=O)cc1 | > 50.1 | > 50.1
CC(C)N(C)S(=O)(=O)NCCc1cccs1 | 206 | 182
Cc1cccc(C2(O)CCN(Cc3ccccc3N3CCCC3)CC2)c1 | 20.7 | 12.1
O=C1CCCCN1Cn1cc(I)cn1 | 318 | 251
Cc1ccc(F)c(C(=O)N[C@@H]2CNC[C@H]2O)c1Cl | > 501 | > 501
C1CC(COCCc2noc(C3CNC3)n2)CCO1 | 279 | 337
CCNC(=O)c1cc2ccc(OC)cc2[nH]1 | > 501 | 283
CCCn1nc(C(=O)NCc2csc(Br)c2)ccc1=O | 154 | 222
O=C(CNC1CC1)NC[C@H]1CCc2ccccc2O1 | 156 | 130
Nc1cc(C2CCN(C(=O)Cc3ccsc3)CC2)no1 | > 501 | 264
CC(C)c1ccc(S(=O)(=O)C(C)C(N)=O)cc1 (stereo not given) | 190 | 284
CCc1nnc2n1CCN(C(C(=O)NC1CC1)c1ccccc1)C2 (stereo not given) | > 50.1 | > 50.1
CN(Cc1c(F)cccc1Cl)S(=O)(=O)N1CCOCC1 | 269 | 270
Cc1cccc(N2CCCC(N)C2)n1 (stereo not given) | 150 | 119
